Tests used:
Toxicity (Irwin's test) = format: in vivo
Method: Progressive doses of the compound to be tested are administered intraperitoneally to groups of three mice until the lethal dose is reached (dose which causes the death of two animals out of three within 48 hours).

[1] = system: effects of scopolamine on the band from 6.4 to 9.6 Hz in the EEG; assay: Inhibition of the effects of scopolamine on the electroencephalogram (EEG); format: in vivo, male albino Sprague-Dawley rats; parameters: inhibition: dose or concentration left out as unconfirmed; details: Rattus norvegicus, ip; read-out: Inhibition (percentage of reduction in the increase in the intensity of the band from 6.4 to 9.6 Hz)
Method: Male albino Sprague-Dawley SPF rats (160 to 200 g) are used in this test. When the animals are 3 months old, 5 cortical electrodes are implanted permanently, aseptically and under a general anesthesia: one inert electrode, one left and one right frontal electrode, and one left and one right occipital electrode (P. ETEVENON, loc.cit.). The test is carried out when the animals are about 15 months old. In the meantime, the animals are kept in individual cages. They are given water and food ad libitum and are subjected to a regular daily cycle comprising a period of darkness between 6 o'clock in the evening and 6 o'clock in the morning. At the same time, the animals are progressively acclimatized to the cages of the sound-proof cabin which they will subsequently occupy for recording of the electroencephalograms, as well as to the experimental conditions, by intraperitoneal administration of placebo. The products are administered immediately before the EEG is recorded. The rats are divided into groups of 8 animals and 16 samples of the EEG spectra are recorded over 5 seconds (two EEG spectra per animal). The spectra obtained are then analyzed by computer (rapid Fourier transform), which enables the average of the 16 measurements performed to be determined for each group and the overall intensity of the EEG spectrum and the distribution of this intensity (in %) in the various frequency bands to be deduced for each animal. This operation (recording of the spectra) is repeated 9 times (total

| Compound | Lethal dose (death of two animals out of three within 48 hours) (Toxicity (Irwin's test); mice, intraperitoneal) [mg/kg] | inhibition [1] [%] | Lethal dose (death of two animals out of three within 48 hours) (Toxicity (Irwin's test); mouse, in vivo, ip) [mg/kg] |
| --- | --- | --- | --- |
| CCCc1nc(NC(C)=O)nc(N2CCOCC2)n1 | 905 | – | – |
| CCCc1nc(N2CCOCC2)nc(N(C)C(C)=O)n1 | 947 | – | – |
| CCCc1nc(NCCO)nc(N2CCOCC2)n1 [Compound 1, 2-[(4-morpholino-6-propyl-1,3,5-triazin-2-yl)amino]-ethanol] | 802 | 52 | – |
| CCCc1nc(NO)nc(N2CCOCC2)n1 [Compound 2, 2-(hydroxyamino)-4-morpholino-6-propyl-1,3,5-triazine] | 718 | – | – |
| CCCc1nc(NCCCO)nc(N2CCOCC2)n1 [Compound 3] | 844 | – | – |
| CCCc1nc(NCCCCO)nc(N2CCOCC2)n1 [Compound 4] | 886 | – | – |
| CCCc1nc(NCC(C)O)nc(N2CCOCC2)n1 (centres unmarked) [Compound 5] | 563 | – | – |
| CCCc1nc(NCC(O)CC)nc(N2CCOCC2)n1 (centres unmarked) [Compound 6] | 886 | – | – |
| CCCc1nc(NC(CC)CO)nc(N2CCOCC2)n1 (centres unmarked) [Compound 7] | – | 50 | 886 |
| CCCc1nc(NC(C)(C)CO)nc(N2CCOCC2)n1 [Compound 8] | 886 | – | – |
| CCCc1nc(N(C)CCO)nc(N2CCOCC2)n1 [Compound 9] | – | 53.3 | 844 |
| CCCc1nc(NCCOC)nc(N2CCOCC2)n1 [Compound 10, 2-[(2-methoxyethyl)amino]-4-morpholino-6-propyl-1,3,5-triazine] | 844 | – | – |
| CCCc1nc(NCC(O)CO)nc(N2CCOCC2)n1 (centres unmarked) [Compound 11] | 892 | – | – |
| CCCc1nc(NC(CO)(CO)CO)nc(N2CCOCC2)n1 [Compound 12] | 982 | – | – |
| CCCc1nc(NC(C)(CO)CO)nc(N2CCOCC2)n1 [Compound 13] | 934 | – | – |
| CCCc1nc(N2CCOCC2)nc(N(CCO)Cc2ccccc2)n1 [Compound 14] | > 1073 | – | – |
| CCCc1nc(NC(CO)C(O)c2ccccc2)nc(N2CCOCC2)n1 (centres unmarked) [Compound 15] | 1121 | – | – |
| CCCc1nc(NC[C@H](C)O)nc(N2CCOCC2)n1 [Compound 16, (S)-3-[(4-morpholino-6-propyl-1,3,5-triazin-2-yl)amino]-2-propanol] | 844 | – | – |
| CCCc1nc(NC[C@@H](C)O)nc(N2CCOCC2)n1 [Compound 17] | 844 | – | – |
| CCCc1nc(NCC2(O)CCCCC2)nc(N2CCOCC2)n1 [Compound 18] | 1007 | – | – |
| CCCc1nc(N2CCOCC2)nc(N2CCCC2CO)n1 (centres unmarked) [Compound 19] | 1031 | – | – |
| CCCc1nc(NN(C)C)nc(N2CCOCC2)n1 [Compound 20, 2-(2,2-dimethylhydrazino)-4-morpholino-6-propyl-1,3,5-triazine] | 799 | 66.7 | – |
| CCCc1nc(NC(C)=O)nc(N2CCOCC2)n1 [Compound 21a, N-(4-Morpholino-6-propyl-1,3,5-triazin-2-yl)-acetamide] | 996 | 100 | – |

| Compound | Lethal dose (death of two animals out of three within 48 hours) (Toxicity (Irwin's test); mice, intraperitoneal) [mg/kg] | inhibition [1] [%] | Lethal dose (death of two animals out of three within 48 hours) (Toxicity (Irwin's test); mouse, in vivo, ip) [mg/kg] |
| --- | --- | --- | --- |
| CCCc1nc(NC(=O)c2ccccc2)nc(N2CCOCC2)n1.Cl [Compound 22, N-(4-morpholino-6-propyl-1,3,5-triazin-2-yl)-benzamide hydrochloride] | 1091 | 66.7 | – |
| CCCc1nc(NC(=O)Cc2ccccc2)nc(N2CCOCC2)n1 [Compound 23] | > 1024 | – | – |
| CCCc1nc(NC(=O)C(C)C)nc(N2CCOCC2)n1 [Compound 24] | 880 | – | – |
| CCCc1nc(N2CCOCC2)nc(N(C)C(C)=O)n1 [Compound 25a] | – | 46.7 | 838 |
| CCCc1nc(N2CCOCC2)nc(N(C)C(=O)C(C)C)n1 [Compound 26] | – | 55.6 | 922 |
| CCCc1nc(N2CCOCC2)nc(N(C)C(=O)c2ccccc2)n1.Cl [Compound 27, N-methyl-N-(4-morpholino-6-propyl-1,3,5-triazin-2-yl)-benzamide hydrochloride] | 1133 | 93.8 | – |
| CCCc1nc(NC(=O)Oc2ccccc2)nc(N2CCOCC2)n1 [Compound 28, phenyl (4-morpholino-6-propyl-1,3,5-triazin-2-yl)carbamate] | > 1030 | – | – |
| CCCc1nc(NC(=O)c2ccc(Cl)cc2)nc(N2CCOCC2)n1 [Compound 29] | 398 | – | – |
| CCCc1nc(N2CCOCC2)nc(N(C)C(=O)c2ccc(Cl)cc2)n1 [Compound 30] | 1125 | – | – |
| CCCc1nc(NC(=O)c2ccc(OC)cc2)nc(N2CCOCC2)n1 [Compound 31] | 511 | – | – |
| CCCc1nc(N2CCOCC2)nc(N(C)C(=O)c2ccc(OC)cc2)n1 [Compound 32] | 1222 | – | – |
| CCCc1nc(NC(=O)c2ccc(C)cc2)nc(N2CCOCC2)n1 [Compound 33] | 1132 | – | – |
| CCCc1nc(N2CCOCC2)nc(N(C)C(=O)c2ccc(C)cc2)n1 [Compound 34] | 1174 | – | – |
| CCCc1nc(N2CCOCC2)nc(N(C)C(=O)c2ccc(OC)c(OC)c2)n1 [Compound 35] | 401 | – | – |
| CCCc1nc(NC(=O)c2ccc(C)c(C)c2)nc(N2CCOCC2)n1 [Compound 36] | 1174 | – | – |
| CCCc1nc(NCCOC(C)=O)nc(N2CCOCC2)n1 [Compound 37, 2-[[2-(acetoxy)ethyl]amino]-4-morpholino-6-propyl-1,3,5-triazine] | 928 | 53.3 | – |
| CCCc1nc(NCCOC(=O)C(C)C)nc(N2CCOCC2)n1 [Compound 38] | > 1012 | – | – |
| CCCc1nc(NCCOC(=O)c2ccccc2)nc(N2CCOCC2)n1 [Compound 39] | > 1114 | – | – |
| CCCc1nc(NCCOC(=O)Cc2ccccc2)nc(N2CCOCC2)n1 [Compound 40] | 1157 | – | – |
| CCCc1nc(NC(=O)N(C)C)nc(N2CCOCC2)n1 [Compound 41, N,N-Dimethyl-N'-(4-morpholino-6-propyl-1,3.5-triazin-2-yl)-urea] | 294 | – | – |
| CCCc1nc(NCCOC(N)=O)nc(N2CCOCC2)n1 [Compound 42, 2-[[2-[(Aminocarbonyl)oxy]ethyl]amino]-4-morpholino-6-propyl-1,3,5-triazine] | > 931 | – | – |
| CCCc1nc(N2CCOCC2)nc(N(CCOC(C)=O)C(C)=O)n1 [Compound 43, N-[2-(Acetoxy)ethyl]-N-(4-morpholino-6-propyl-1,3,5-triazin-2-yl)-acetamide] | 351 | 77.8 | – |
